What all share (type): cell-based
One assay has as its system lung PDX. Put plainly: Cell viability, lung PDX (panel statement). Particulars: text summary of Table 15; read-out: IC50, lung PDX growth. The procedure: (§1) PDX-derived cell cultures were obtained from tumors explanted from mice and isolated by mechanical and enzymatic dissociation. […] Cells were harvested and seeded in 96-wells plates at a density of 1.25 to 5×10^3 cells/well for cytotoxicity assays. Cells were incubated 48 h at 37° C. prior to addition of test molecules and vehicle (DMSO, 0.1%) at desired final concentrations. Cell viability was assessed before drugs' addition (To) and 5 days after test molecules addition by measuring ATP cell content using CellTiter-Glo® Luminescent Cell Viability Assay (Promega) according to the manufacturer's instructions. Luciferase activity was measured on a luminometer (PerkinElmer® EnVision™). Each concentration of compounds was tested in triplicate.
(§2) Viability was calculated as a percentage of ATP value compared to vehicle treated controls.
(§3) For PDX primary cell cultures, the tumour tissue was washed with PBS containing antibiotic-antimycotic and non-tumour tissue and necrotic tumour tissues were separated. The tumour tissue was transferred to a new dish and cut into 1˜2 mm^3 fragments, resuspended in RPMI-1640 medium and centrifuged at 1,200 rpm for 6 min at room temperature. The pelleted material was resuspended with 15 mL of Tumour Cell Digestion Solution and incubated at 37° C. for 1 hour with agitation. […]

The next assay relates to U-118. Put plainly: Cell viability assay, U-118. The conditions noted are these: brain carcinoma cell line U-118. The procedure:
(§4) Antitumor activity of the compounds and doxorubicin as a positive control was assessed by using the CellTiter-Blue Cell Viability Assay (Promega, #G8082) or CellTiter-Glow® Luminescent Cell Viability assay (Promega #G7572) according to the manufacturer's instructions. The compounds were tested at 5 or 6 concentrations in half-log increments (highest concentration 30 μM or 100 μM) in duplicate or triplicate well conditions.
(§5) Tumor cells were grown at 37° C. in a humidified atmosphere with 5% CO2 in RPMI 1640 or DMEM medium, supplemented with 10% (v/v) fetal calf serum and 50 μg/ml gentamicin for up to 20 passages, and were passaged once or twice weekly. Cells were harvested using TrypLE or PBS buffer containing 1 mM EDTA, and the percentage of viable cells was determined using a CASY Model TI cell counter (OMNI Life Science). Cells were harvested from exponential phase cultures, counted and plated in 96 well flat-bottom microtiter plates at a cell density depending on the cell line's growth rate (4,000-20,000 cells/well depending on the cell line's growth rate, up to 60,000 for hematological cancer cell lines) in RPMI 1640 or DMEM medium supplemented with 10% (v/v) fetal calf serum and 50 μg/ml gentamicin (140 μl/well). […] Viability of cells was quantified by the CellTiter-Blue® cell viability assay (Promega G8081) or CellTiter-Glow® Luminescent Cell Viability assay (Promega #G7572). […]

In another assay the test system is MDA-MB-436. Put plainly: Cell viability assay, MDA-MB-436. Particulars: Homo sapiens; breast carcinoma cell line MDA-MB-436. How it is done: as §4, §5
Another assay deals with breast PDX. Put plainly: Cell viability, breast PDX (panel statement). The conditions noted are these: Table 5; read-out: IC50, growth of breast PDX. How it is done:
as §1, §2, §3

The test system of another assay is Panc-1. Put plainly: Cell viability assay, Panc-1. The conditions noted are these: pancreatic carcinoma cell line Panc-1. The procedure:
as §4, §5

In patent publication US20240124503A1, “HETEROAROMATIC PHOSPHONIUM SALTS AND THEIR USE TREATING CANCER” (FLORATEK PHARMA S.A., priority 2021, published 2024) one finds IC50 data, which are given here for 2 molecules.

The IC50 is the concentration that gives 50% inhibition.

In the case of `COc1c(O)ccc2c(=O)c(O)c(-c3ccc(CCCC[P+](c4ccccc4)(c4ccccc4)c4ccccc4)cc3)oc12` [SND190, (4-(4-(3,7-Dihydroxy-8-methoxy-4-oxo-4H1-chromen-2-yl)phenyl)butyl)triphenylphosphonium bromide], the IC50 with lung PDX is less than 20 µM; in the assay with U-118, 9.4 µM; in the assay on MDA-MB-436 it was 2.9 µM; in the assay on breast PDX it was less than 20 µM.

In the case of `O=c1cc(-c2ccc(CCC[P+](c3ccccc3)(c3ccccc3)c3ccccc3)cc2)oc2c(O)c(O)ccc12` [SND200, (3-(4-(7,8-Dihydroxy-4-oxo-4H1-chromen-2-yl)phenyl)propyl)triphenylphosphonium bromide], the IC50 in the assay with Panc-1 was 1.33 µM.
